Two compounds from patent publication US11633378B2, “Methods and compositions for delivering mycophenolic acid active agents to non-human mammals” (OKAVA PHARMACEUTICALS, INC., priority 2017, dated 2023) can be followed below.

The nature of this data set: Study 1: single dose cross-over pharmacokinetics, oral vs intracolonic Na.MPA. The note with it: dog, in vivo. The arrangement: species or system male beagle dogs. The procedure: Two single dose cross-over studies were conducted using a canine model (male beagle dogs) to evaluate the potential of an enteric coated-extended release sodium mycophenolate formulation (“EC-ER-Na.MP”). In a first cross-over study, the pharmacokinetics of MPA and its metabolites (MPAG and AcMPAG) following oral dosing of 180 mg of EC-Na.MPA was compared with intracolonic (IC) administration of Na.MPA. In a second cross-over study, 270 mg of an EC-ER-Na.MPA formulation was administered in the both fed and fasted states and pharmacokinetics were compared with oral administration of 10 mg/kg MMF in the fasted state. Both studies were conducted by Absorption Systems (San Diego, Calif.).
Study 1: For three days prior to IC dosing, dogs (n=5) were offered a soft diet consisting of canned wet food (Pedigree® Choice Cuts). Otherwise, the dogs were offered their standard diet (LabDiet 5006 laboratory canine diet). Prior to each dosing event, the dogs were fasted for 12 hours prior to dosing until 4 hours post-dose, when food was returned. Animals had free access to water throughout the study. Prior to IC dosing, each dog was given a non-stimulant enema approximately 1 hour prior to dosing to remove feces from the colon. Prior to PO dosing, each dog (n=5) was pre-treated with an intramuscular dose of pentagastrin (6 μg/kg) approximately 30 minutes prior to dosing. Capsules were administered by placement in the back of the throat followed by a 10 mL flush with water.
Each dog received a total dose of 180 mg of MPA for each dose. For IC dosing, MPA was delivered as a solution via an endoscope, and for PO dosing each dog received a single Myfortic® 180 mg enteric coated capsule. Following administration, blood samples were collected up to 24 hours post-dose. Plasma concentrations of MPA, MPAG, and AcMPAG were determined with a qualified LC-MS/MS method, and pharmacokinetic parameters were determined with WinNonlin v.6.4 software.

Read-outs that look alike come from different tables or passages of the source.

`COc1c(C)c2c(c(O)c1C/C=C(\C)CCC(=O)O)C(=O)OC2` [MPA, Mycophenolic acid]: for the setting “male, beagle, 180 mg”, the highest level (Cmax) was 29500 ± 12600 ng/mL; the “MPA Cmax” value is 29460 ng/mL; the half-life – broadly, the time in which the quantity being followed falls by half – was 5.55 ± 1.77 h. For the same compound, where the note is “male, beagle, po, 180 mg”, the highest level (Cmax) was 27300 ± 12000 ng/mL, the “MPA Cmax” value amounted to 27320 ng/mL and the half-life is 4.49 h.
For `COc1c(C)c2c(c(O)c1C/C=C(\C)CCC(=O)O)C(=O)OC2` [Na•MPA, sodium mycophenolate], the “MPA:metabolite ratios compared with oral MMF or enteric-coated Na.MPA” value is listed as “higher MPA:metabolite ratios”. Where the note is “male beagle dogs, plasma, ORAL 180 mg (Myfortic enteric coated capsule), single dose, fasted, read-out: MPA MRTlast”, the MRT last was 2.86 h. Where the note is “male, beagle, 180 mg”, the AUC(0-inf) – broadly, total exposure, with the tail of the curve extrapolated – was determined as 31900 ng·h/mL; the AUC(0-t) (as a rule, the area under the concentration-time curve up to a stated or last time point) was found to be 31000 ng·h/mL; the “MPA Cmax” value is listed as 29460 ng/mL; the “MPA t1/2” value was determined as 5.55 h. Further, for the setting “male, beagle, 180 mg”, the “MPA/AcMPAG Ratio (AUClast)” value turned out to be 171.19, the “MPA/MPAG Ratio (AUC∞)” value is listed as 2.45, the MRT last worked out at 2.76 h and the Tmax (usually the time at which the peak concentration occurs) came to 0.23 h. Where the note is “male, beagle, po, 180 mg”, the AUC(0-inf) is 45700 ng·h/mL, the AUC(0-t) is 36400 ng·h/mL, the “MPA Cmax” value turned out to be 27320 ng/mL and the “MPA t1/2” value was 4.49 h. For the same compound, for the setting “male, beagle, po, 180 mg”, the “MPA/AcMPAG Ratio (AUClast)” value is on record as 88.40, the “MPA/MPAG Ratio (AUClast)” value worked out at 1.42, the “MPA/MPAG Ratio (AUC∞)” value stood at 1.29 and the Tmax is 1 h.
